As usually defined, the IC50 is the concentration needed to halve the response being measured. The term inhibition denotes the percentage by which the read-out fell short of the control.

One assay concerns the target T1, Abl1 (Homo sapiens, UniProt P00519).
T1 construct: purchased Reaction Biology Corp
The assay can be described thus: In vitro kinase assay (IC50). In kind it is biochemical. As for the experimental part:
(§1) Full panel kinase profiling and kinase IC50 measurement were performed by using Reaction Biology Corp. (San Diego, USA).

The target of the next assay is T2, BMX/ETK (Homo sapiens, UniProt P51813).
T2 construct: purchased Reaction Biology Corp
The assay can be described thus: In vitro kinase assay (IC50). In kind it is biochemical. As for the experimental part: as §1

The target of the next assay is T3, Blk (Homo sapiens, UniProt P51451).
T3 construct: purchased Reaction Biology Corp
The assay can be described thus: In vitro kinase assay (IC50). In kind it is biochemical. As for the experimental part:
as §1

A further assay has as its target T4, DDR1 (Homo sapiens, UniProt Q08345).
T4 construct: purchased Reaction Biology Corp
Briefly: In vitro kinase assay (IC50). In kind it is biochemical. The method, then:
as §1

In a further assay the target is T5, Fgr (Homo sapiens, UniProt P09769).
T5 construct: purchased Reaction Biology Corp
T5 sequence (P09769 whole entry): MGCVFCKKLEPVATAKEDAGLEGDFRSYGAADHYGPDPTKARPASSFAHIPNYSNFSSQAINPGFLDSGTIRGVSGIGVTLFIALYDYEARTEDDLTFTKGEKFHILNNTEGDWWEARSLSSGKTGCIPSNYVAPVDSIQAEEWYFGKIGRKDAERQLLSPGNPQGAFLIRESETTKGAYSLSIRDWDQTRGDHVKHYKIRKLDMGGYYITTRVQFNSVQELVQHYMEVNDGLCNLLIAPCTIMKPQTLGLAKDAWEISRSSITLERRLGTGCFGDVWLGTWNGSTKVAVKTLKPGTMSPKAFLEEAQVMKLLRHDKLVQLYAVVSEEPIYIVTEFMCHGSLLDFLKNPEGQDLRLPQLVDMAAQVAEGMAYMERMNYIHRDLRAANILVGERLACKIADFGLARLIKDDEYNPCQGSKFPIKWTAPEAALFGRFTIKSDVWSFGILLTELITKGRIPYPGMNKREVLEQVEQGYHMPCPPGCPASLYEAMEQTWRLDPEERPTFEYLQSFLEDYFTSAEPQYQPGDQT
Briefly: In vitro kinase assay (IC50). In kind it is biochemical. As for the experimental part: as §1

A further assay addresses T6, Lck (Homo sapiens, UniProt P06239).
T6 construct: purchased Reaction Biology Corp
The assay can be described thus: In vitro kinase assay (IC50). Format: biochemical. As for the experimental part: as §1

The target of a further assay is T7, Lyn (Homo sapiens, UniProt P07948).
T7 construct: purchased Reaction Biology Corp
Briefly: In vitro kinase assay (IC50). Format: biochemical. The method, then: as §1

For another assay, the target named is T8, Yes (Homo sapiens, UniProt P07947).
T8 construct: purchased Reaction Biology Corp
Briefly: In vitro kinase assay (IC50). Format: biochemical. As for the experimental part: as §1

The target of the next assay is T9, c-Src (Homo sapiens, UniProt P12931).
T9 construct: purchased Reaction Biology Corp
T9 sequence (P12931 whole entry): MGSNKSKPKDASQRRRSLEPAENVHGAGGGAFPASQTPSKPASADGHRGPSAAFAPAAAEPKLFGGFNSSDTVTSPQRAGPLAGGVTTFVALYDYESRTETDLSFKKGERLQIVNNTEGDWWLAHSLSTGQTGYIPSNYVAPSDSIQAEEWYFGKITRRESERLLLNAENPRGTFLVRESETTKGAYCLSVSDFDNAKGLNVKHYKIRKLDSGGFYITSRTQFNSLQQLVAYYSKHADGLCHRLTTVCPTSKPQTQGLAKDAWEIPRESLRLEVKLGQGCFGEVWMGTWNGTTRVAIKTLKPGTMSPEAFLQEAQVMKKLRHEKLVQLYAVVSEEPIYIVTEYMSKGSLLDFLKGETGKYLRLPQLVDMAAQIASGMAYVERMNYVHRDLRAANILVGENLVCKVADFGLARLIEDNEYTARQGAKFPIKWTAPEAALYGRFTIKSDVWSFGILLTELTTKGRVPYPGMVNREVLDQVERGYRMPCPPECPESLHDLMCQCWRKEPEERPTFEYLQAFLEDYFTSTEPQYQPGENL
Briefly: In vitro kinase assay (IC50). In kind it is biochemical. The method, then:
as §1

The target of the next assay is T10, p38a (Homo sapiens, UniProt Q16539).
T10 construct: purchased Reaction Biology Corp
The assay can be described thus: In vitro kinase assay (IC50). Format: biochemical. As for the experimental part:
as §1

Another assay has as its system DSS-induced colitis mice. Briefly: DSS-induced colitis model. As to conditions: 5 mg/kg, i.p., daily for 7 days, 4% DSS, day 7. In kind it is in vivo. The method, then:
Male C57BL/6 mice (21 ± 2 g; 6 weeks) were obtained from Oriental Bio Inc. (Seongnam-si, Korea). All mice were bred under constant conditions (temperature: 22 ± 2 °C, humidity: 40–60%, light/dark cycle: 12 h). All animal experiments were conducted under the university guidelines of the ethical committee for Animal Care and Use of the Kyung Hee University (KHSASP-22–002).
Colitis in mice was induced by providing water containing 4% (w/v) DSS for 7 days. Mice were randomly divided into 5 groups (n = 6/group, Figure 8) as follows: control group treated with vehicle; DSS plus vehicle group exposed to 4% DSS and treated with vehicle; the other 3 groups consist of mice receiving 4% DSS was treated with 5-ASA (75 mg/kg/day, p.o.) as a positive control or 7a (1, 5 mg/kg/day, i.p.) daily for 7 days.
To calculate the severity of colitis, body weight, stool consistency, and occult/gross bleeding of all mice were assessed. DAI score was measured every day according to the following table (Table 5). The colon length was measured at end of the experiment.

The target of a further assay is T11, CK1a1 (Homo sapiens, UniProt P48729).
T11 construct: purchased Reaction Biology Corp
T11 sequence (P48729 whole entry): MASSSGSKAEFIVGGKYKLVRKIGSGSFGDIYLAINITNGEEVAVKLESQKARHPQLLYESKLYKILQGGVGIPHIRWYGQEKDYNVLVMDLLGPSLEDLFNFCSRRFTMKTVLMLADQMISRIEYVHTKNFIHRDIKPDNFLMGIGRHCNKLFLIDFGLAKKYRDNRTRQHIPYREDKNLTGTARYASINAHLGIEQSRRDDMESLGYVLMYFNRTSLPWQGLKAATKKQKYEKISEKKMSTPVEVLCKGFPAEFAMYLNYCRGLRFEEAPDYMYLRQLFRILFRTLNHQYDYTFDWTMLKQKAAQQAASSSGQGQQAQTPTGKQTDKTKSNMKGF
The assay can be described thus: kinase selectivity profiling. The following applies: 10µM ATP, read-out: % inhibition (relative to DMSO). Format: biochemical. As for the experimental part:
as §1

The target of the next assay is T12, JNK1 (Homo sapiens, UniProt P45983).
T12 construct: purchased Reaction Biology Corp
T12 sequence (P45983 whole entry): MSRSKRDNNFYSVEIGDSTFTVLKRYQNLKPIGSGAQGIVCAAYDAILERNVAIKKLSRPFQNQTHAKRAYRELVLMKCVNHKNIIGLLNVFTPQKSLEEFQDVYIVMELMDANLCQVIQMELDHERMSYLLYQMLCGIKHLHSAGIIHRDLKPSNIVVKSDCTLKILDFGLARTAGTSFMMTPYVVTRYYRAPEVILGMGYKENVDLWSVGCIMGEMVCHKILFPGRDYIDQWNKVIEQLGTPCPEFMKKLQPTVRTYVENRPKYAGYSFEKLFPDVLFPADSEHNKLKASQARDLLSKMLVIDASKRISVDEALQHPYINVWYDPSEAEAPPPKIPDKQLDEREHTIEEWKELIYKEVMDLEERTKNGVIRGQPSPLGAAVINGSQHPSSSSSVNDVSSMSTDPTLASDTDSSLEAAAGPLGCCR
Briefly: kinase selectivity profiling. In kind it is biochemical. The following applies: 10µM ATP, read-out: % inhibition (relative to DMSO). As for the experimental part:
as §1

In the next assay the target is T13, NEK4 (Homo sapiens, UniProt P51957).
T13 construct: purchased Reaction Biology Corp
T13 sequence (P51957 whole entry): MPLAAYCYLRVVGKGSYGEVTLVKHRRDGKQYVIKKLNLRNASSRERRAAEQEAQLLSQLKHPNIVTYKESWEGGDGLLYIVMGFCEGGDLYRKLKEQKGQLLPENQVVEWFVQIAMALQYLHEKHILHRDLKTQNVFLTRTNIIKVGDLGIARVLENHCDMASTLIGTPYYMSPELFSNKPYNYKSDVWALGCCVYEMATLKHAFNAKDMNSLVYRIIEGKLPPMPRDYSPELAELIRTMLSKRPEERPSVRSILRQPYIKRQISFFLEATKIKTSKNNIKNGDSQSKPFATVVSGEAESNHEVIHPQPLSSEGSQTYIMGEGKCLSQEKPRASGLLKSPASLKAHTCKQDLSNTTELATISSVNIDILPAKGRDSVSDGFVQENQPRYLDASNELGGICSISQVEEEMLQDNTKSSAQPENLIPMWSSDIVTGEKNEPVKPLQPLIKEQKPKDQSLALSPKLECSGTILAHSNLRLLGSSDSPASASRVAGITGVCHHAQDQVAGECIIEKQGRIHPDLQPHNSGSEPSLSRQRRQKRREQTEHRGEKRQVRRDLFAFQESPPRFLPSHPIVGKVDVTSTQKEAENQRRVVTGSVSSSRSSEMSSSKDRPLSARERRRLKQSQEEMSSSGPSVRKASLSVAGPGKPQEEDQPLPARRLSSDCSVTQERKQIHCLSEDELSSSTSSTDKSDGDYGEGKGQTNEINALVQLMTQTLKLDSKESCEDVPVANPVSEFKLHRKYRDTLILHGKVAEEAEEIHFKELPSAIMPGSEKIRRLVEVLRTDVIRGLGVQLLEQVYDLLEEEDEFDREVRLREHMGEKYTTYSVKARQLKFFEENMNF
Briefly: kinase selectivity profiling. Format: biochemical. The following applies: 10µM ATP, read-out: % inhibition (relative to DMSO). As for the experimental part:
as §1

The target in the next assay is T14, TGFBR2 (Homo sapiens, UniProt P37173).
T14 construct: purchased Reaction Biology Corp
T14 sequence (P37173 23-567): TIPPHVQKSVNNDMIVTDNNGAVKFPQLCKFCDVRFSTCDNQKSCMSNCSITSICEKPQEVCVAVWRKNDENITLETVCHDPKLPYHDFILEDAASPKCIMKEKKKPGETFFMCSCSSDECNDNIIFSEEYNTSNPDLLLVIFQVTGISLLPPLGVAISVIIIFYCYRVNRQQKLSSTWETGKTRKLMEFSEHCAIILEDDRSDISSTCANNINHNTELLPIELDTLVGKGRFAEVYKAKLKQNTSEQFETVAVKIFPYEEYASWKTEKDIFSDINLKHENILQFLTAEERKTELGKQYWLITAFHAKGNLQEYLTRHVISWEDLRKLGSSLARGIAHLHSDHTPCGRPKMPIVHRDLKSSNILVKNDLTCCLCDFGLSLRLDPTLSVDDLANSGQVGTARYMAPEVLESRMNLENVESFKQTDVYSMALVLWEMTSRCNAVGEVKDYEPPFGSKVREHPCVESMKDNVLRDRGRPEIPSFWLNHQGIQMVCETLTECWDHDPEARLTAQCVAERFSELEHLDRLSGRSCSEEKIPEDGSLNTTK
Briefly: kinase selectivity profiling. Format: biochemical. The following applies: 10µM ATP, read-out: % inhibition (relative to DMSO). As for the experimental part:
as §1

Where a SMILES comes first, the peptide text is derived from it. [ ]: non-standard residue; d: D form. The star is where a group is joined. X1 = Cc1ccc(Nc2ncc3c(n2)N(C)C(=O)N(c2cc(C(=O)*)ccc2C)C3)cn1; Aib = CC(C)(N)C(=O)O

T6 sequence (P06239 whole entry): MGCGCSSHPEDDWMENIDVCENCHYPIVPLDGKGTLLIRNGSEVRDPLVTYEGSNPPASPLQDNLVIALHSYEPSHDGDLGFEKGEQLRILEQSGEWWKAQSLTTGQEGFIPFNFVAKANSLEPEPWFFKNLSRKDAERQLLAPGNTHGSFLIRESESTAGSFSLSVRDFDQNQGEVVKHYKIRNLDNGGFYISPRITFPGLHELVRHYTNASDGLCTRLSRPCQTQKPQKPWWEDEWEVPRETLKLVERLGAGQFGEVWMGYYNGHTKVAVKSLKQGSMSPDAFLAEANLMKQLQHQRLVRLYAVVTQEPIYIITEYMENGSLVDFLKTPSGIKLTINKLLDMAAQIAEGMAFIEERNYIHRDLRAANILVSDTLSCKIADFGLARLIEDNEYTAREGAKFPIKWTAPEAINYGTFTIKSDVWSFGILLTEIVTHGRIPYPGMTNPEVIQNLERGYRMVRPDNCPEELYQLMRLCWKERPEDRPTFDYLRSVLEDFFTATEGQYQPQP
T1 sequence (P00519 whole entry): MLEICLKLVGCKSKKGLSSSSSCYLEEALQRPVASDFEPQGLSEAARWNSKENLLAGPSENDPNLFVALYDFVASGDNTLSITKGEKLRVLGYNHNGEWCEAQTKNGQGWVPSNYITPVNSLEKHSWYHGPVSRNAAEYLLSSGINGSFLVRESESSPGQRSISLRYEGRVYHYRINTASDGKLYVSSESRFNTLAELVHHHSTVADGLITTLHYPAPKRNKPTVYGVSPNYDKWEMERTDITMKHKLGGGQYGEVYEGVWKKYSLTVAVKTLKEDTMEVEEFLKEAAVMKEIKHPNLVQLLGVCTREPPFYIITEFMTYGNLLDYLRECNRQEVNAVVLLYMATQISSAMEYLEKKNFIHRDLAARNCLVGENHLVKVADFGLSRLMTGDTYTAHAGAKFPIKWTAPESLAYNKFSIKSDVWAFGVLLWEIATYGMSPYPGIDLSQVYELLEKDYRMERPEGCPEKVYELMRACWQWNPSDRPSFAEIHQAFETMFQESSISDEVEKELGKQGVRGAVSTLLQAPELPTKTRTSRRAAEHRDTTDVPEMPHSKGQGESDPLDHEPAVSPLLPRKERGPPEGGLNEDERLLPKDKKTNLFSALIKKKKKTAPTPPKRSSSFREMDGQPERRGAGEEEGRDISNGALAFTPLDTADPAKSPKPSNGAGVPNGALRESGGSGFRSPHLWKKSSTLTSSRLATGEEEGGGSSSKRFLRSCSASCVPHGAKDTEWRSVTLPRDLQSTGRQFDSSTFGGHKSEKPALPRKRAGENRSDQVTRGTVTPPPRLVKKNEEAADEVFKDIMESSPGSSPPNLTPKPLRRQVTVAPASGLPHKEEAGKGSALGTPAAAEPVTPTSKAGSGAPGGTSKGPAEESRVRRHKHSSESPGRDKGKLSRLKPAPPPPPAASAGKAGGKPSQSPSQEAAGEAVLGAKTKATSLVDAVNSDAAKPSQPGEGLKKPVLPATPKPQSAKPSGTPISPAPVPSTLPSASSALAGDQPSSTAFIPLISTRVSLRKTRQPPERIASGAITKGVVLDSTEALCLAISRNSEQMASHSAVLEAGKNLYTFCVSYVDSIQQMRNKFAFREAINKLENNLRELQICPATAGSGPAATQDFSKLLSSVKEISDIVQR

As for `Cc1ccc(Nc2ncc3c(n2)N(C)C(=O)N(c2cc(C(=O)N[C@H](C(=O)N4CCC[C@H]4C(=O)NC(C)(C)C(=O)N[C@@H](CC(C)C)C(=O)N(C)C)C(C)C)ccc2C)C3)cn1` [7a, (S)-N-(1-(((S)-1-(dimethylamino)-4-methyl-1-oxopentan-2-yl)amino)-2-methyl-1-oxopropan-2-yl)-1-((4-methyl-3-(1-methyl-7-((6-methylpyridin-3-yl)amino)-2-oxo-1,4-dihydropyrimido[4,5-d]pyrimidin-3(2H)-yl)benzoyl)-L-valyl)pyrrolidine-2-carboxamide] (X1-VP[Aib]L-NMe2), the 50% inhibitory concentration (IC50) against Abl1 amounted to 378 nM; on BMX/ETK, 293 nM; on Blk, 253 nM; on DDR1 it was 110 nM; on Fgr it was 201 nM; against Lck, 23 nM. Further, the half-maximal inhibitory concentration (IC50) is 671 nM on Lyn, 495 nM against Yes, 861 nM at c-Src and greater than 10 µM against p38a. Also, the “selectivity for Lck over c-Src” value on Lck was “over 10 fold”. The “Lck selectivity over c-Src (c-Src IC50 / Lck IC50)” value on Lck (Table 2) stood at 37. Moreover, in the assay on DSS-induced colitis mice, the “disease activity index (DAI) symptom changes” value is “improved the symptom changes at the end of experiments”. Also, the colon length in the assay with DSS-induced colitis mice (mean ± SE, n = 6) came to 5.47 ± 0.60 cm. Besides, the inhibition at 1 µM at CK1a1, at JNK1, at NEK4 and at TGFBR2 was 0% throughout.

The values above are taken from paper PMC9067983, “Identification of highly selective type II kinase inhibitors with chiral peptidomimetic tails” (Journal of Enzyme Inhibition and Medicinal Chemistry, 2022).
